Assay results from patent publication US10406169B2, “Methods of monitoring estriol therapy” (The Regents of the University of California, priority 2015, dated 2019).

Key:
[1] = Serum estriol levels in the clinical trial; format: in vivo, human
From the text: Safety assessments, including clinical, blood laboratory safety testing and assessments of estriol levels, occurred at months 0, 3, 6, 12, 18, and 24. On study blood tests included complete blood count (CBC) with differential and platelets; chemistry panel including sodium, potassium, creatinine, BUN, glucose, total protein, albumin, bilirubin (total), alkaline phosphatase, AST (SGOT), and ALT (SGPT), and lipid profile (HDL, LDL and triglycerides, cholesterol. Gynecologic exams were done at month 0, 6, 18 and at month 24 exit, with uterine ultrasounds at months 6, 18 and at month 24 exit. Mammograms were done in screening and at month 24 exit. Adverse event analysis was based on the percentage of patients who discontinued the study and the percentage of patients who discontinued the study possibly due to adverse events.
Free estriol levels were also measured and followed a similar pattern of change within individuals as total levels, with absolute free levels a fraction of the magnitude of the absolute total levels as expected.

[2] = test system: relapsing-remitting multiple sclerosis; assay: Gadolinium enhancing lesions on brain MRI; format: in vivo, human; set-up: Enhancing lesion volume, mean ± SD: unit not given here
Protocol: Mixed effects negative binomial regression model and linear mixed effects model were used to compare enhancing lesion volume (log-transformed) between treatment groups at all follow-ups, and mixed effects logistic model was used to compare the number of subjects positive for gadolinium enhancing lesions. Linear mixed effects model was carried out to compare the percent change in whole gray matter and cortical gray matter between treatment groups. For the exploratory endpoints of EDSS, PASAT, fatigue, depression, quality of life and brain volume measures, linear mixed effects model was used to compare treatment groups at 12 and 24 months.
Dual-echo fast spin echo: TR10000, TE12/95, 50 slices, 1×1×3 mm. Fluid attenuated inversion recovery (FLAIR): TR10380, TE88, TI88, TI2500, 50 slices, 1×1×3 mm. Minor changes were allowed to accommodate different platforms and field strengths at each site. MRI data in Dicom format were fully anonymized prior to transfer and then uploaded to the central MRI reading center database. Prior to study onset, each site provided a dummy scan utilizing the standardized sequences for review by the central MRI reading center to verify scan quality and fidelity. Quality control was maintained at each site using standard procedures for clinical scanners (daily phantoms, stability testing). Quarterly phantoms were collected from 12 of the 15 sites, most using the standard American College of Radiology (ACR) phatom. One site upgraded from a Siemens 1.5T to a 3.0T in November 2013, resulting in the acquisition of one month 24 scan on the new scanner. One site upgraded from a Phillips Achieva 3.0T to a Pillips Intera 3.0T after the first subject completed month 24. All subsequent studies were performed on the Intera.
Analysis of gadolinium enhancing lesions and T2 lesions were performed as described by Sicotte et al. (Ann. Neurology 52:421 (2002)). Briefly, MRI data was coded by study site and randomization number. The number and volume of enhancing lesions were quantified on the post contrast T1 weighted scans by an experienced investigator who was blind to treatment group using a semi-automated threshold-based algorithm. To assess T2 lesions, all FLAIR images were RF corrected, then intensity normalized and registered into a common space defined by the baseline scan for each individual. All subsequent scans were registered to the baseline exam for spatial normalization using a rigid body model. T2 lesion areas were determined using a semi-automated intensity based segmentation procedure by a trained, experienced researcher verified by a single investigator (NLS).

- Serum total estriol level, Mean ± SD ([1]; Month 0): 2.1 ± 2.3 ng/mL
- Serum total estriol level, Median ([1]; Month 0): 1.6 ng/mL
- Serum total estriol level, Mean ± SD ([1]; Month 3): 2.1 ± 1.6 ng/mL
- Serum total estriol level, Median ([1]; Month 3): 1.8 ng/mL
- Serum total estriol level, Mean ± SD ([1]; Month 6): 1.9 ± 1.4 ng/mL
- Serum total estriol level, Median ([1]; Month 6): 1.8 ng/mL
- Serum total estriol level, Mean ± SD ([1]; Month 12): 2.0 ± 1.4 ng/mL
- Serum total estriol level, Median ([1]; Month 12): 1.8 ng/mL
- Serum total estriol level, Mean ± SD ([1]; Month 18): 1.8 ± 1.2 ng/mL
- Serum total estriol level, Median ([1]; Month 18): 1.8 ng/mL
- Serum total estriol level, Mean ± SD ([1]; Month 24): 1.8 ± 1.1 ng/mL
- Serum total estriol level, Median ([1]; Month 24): 1.6 ng/mL
Substance: glatiramer acetate [Placebo + GA]
- Serum estriol concentrations (in words) ([1]; Month 3): did not exceed the estriol assay detection limit
- Enhancing lesion volume, mean ± SD ([2]; Baseline): 49.9 ± 121.2
- Enhancing lesion volume, median ([2]; Baseline): 0
- Percentage patients with enhancing lesions % (95% CI) ([2]; Baseline): 29.3 (19.0-39.6) %
- Enhancing lesion volume, mean ± SD ([2]; Month 12): 27.4 ± 147.2
- Enhancing lesion volume, median ([2]; Month 12): 0
- Percentage patients with enhancing lesions % (95% CI) ([2]; Month 12): 21.0 (10.8-31.1) %
- Enhancing lesion volume, mean ± SD ([2]; Month 24): 17.9 ± 71.1
- Enhancing lesion volume, median ([2]; Month 24): 0
- Percentage patients with enhancing lesions % (95% CI) ([2]; Month 24): 14.6 (5.2-23.9) %
- Decrease in enhancing lesion volumes ([2]; month 12 vs baseline): 45%
